One assay relates to NF-κB. Nature of the assay: NF-κB assay: THP1-NF-κB-LUC cells, LPS-stimulated secreted luciferase. The class given is cell-based. The following applies: THP1-NF-κB-LUC cells, read-out: IC50 (NF-κB assay). An outline of the steps: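 THP1-NF-κB-LUC cells (25k/well) were pretreated with compounds for 2 h, then stimulated with LPS (10 ng/mL) for 18 h. Secreted luciferase was measured and normalized to vehicle, and IC50 was fitted from the concentration series.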

In another assay the test system is TNF release. Nature of the assay: TNF assay: TNF release from LPS-stimulated human PBMCs (TNF ELISA). The settings on record: PBMC, read-out: IC50 (TNF assay). The class given is cell-based. An outline of the steps:
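TNF ELISA on supernatants read-out; cells were 10k human PBMCs/well given LPS at 10 ng/mL for 18 h after a 2 h compound pre-incubation across a concentration series, with IC50 derived for suppression of TNF secretion.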
Background: An ELISA detects its analyte on a solid surface through an enzyme-linked reagent.

The mark [1] stands for this setting: compounds 2 hours before LPS (10 ng/mL) for 18 hours, secreted luciferase.
The mark [2] stands for this setting: human PBMCs, compounds 2 hours before LPS (10 ng/ml) for 18 hours, supernatant TNF ELISA.
Where [3] appears, read: LPS-stimulated human PBMCs, TNF ELISA.

SMILES strings stand for the structures. Read-outs that look alike come from different tables or passages of the source.

In general, IC50 refers to the concentration that gives 50% inhibition. In the case of `COc1ccc(NS(=O)(=O)c2cc3c(cc2Cl)NC(=O)C(C)O3)cc1Cl` (stereo not shown) [BC19280], the IC50 in the assay on NF-κB (setting [1]) was 1 to 10 µM; in the assay on TNF release (setting [2]), above 10 µM.
Take `CCOc1ccc(NS(=O)(=O)c2cc3c(cc2Cl)NC(=O)C(C)O3)cc1` (stereo not shown) [BC19281]: the results for the IC50 with NF-κB (setting [1]) and with TNF release (setting [2]) were 0.1 to 1 µM and above 10 µM, respectively.
As for `CCC1Oc2cc(S(=O)(=O)Nc3cccc(C(C)=O)c3)c(Cl)cc2NC1=O` (stereo not shown) [BC19282], the IC50 in the assay on NF-κB (setting [1]) was 0.1 to 1 µM; in the assay on TNF release (setting [2]) it was above 10 µM.
Take `CCc1cccc(NS(=O)(=O)c2cc3c(cc2Br)NC(=O)C(C)O3)c1` (stereo not shown) [BC19283]: the IC50 is 0.1 to 1 µM in the assay on NF-κB (setting [1]) and above 10 µM with TNF release (setting [2]).
The matching figures for `CC1Oc2cc(S(=O)(=O)Nc3ccc(F)c(F)c3)c(Br)cc2NC1=O` (stereo not shown) [BC19284]: below 0.1 µM and above 10 µM.
The like results for `CC1Oc2cc(S(=O)(=O)Nc3ccc(F)cc3Cl)c(Br)cc2NC1=O` (stereo not shown) [BC19285] were, in that order, 1 to 10 µM and above 10 µM.
Turning to `CCC1Oc2cc(S(=O)(=O)Nc3ccc(Cl)cc3)c(Br)cc2NC1=O` (stereo not shown) [BC19286], the IC50 in the assay with NF-κB (setting [1]) was below 0.1 µM; with TNF release (setting [2]), above 10 µM.
For `CCC1Oc2cc(S(=O)(=O)NCc3ccccc3)c(Br)cc2NC1=O` (stereo not shown) [BC19287], the IC50 with NF-κB (setting [1]) was 1 to 10 µM; in the assay with TNF release (setting [2]) it was above 10 µM.
On to `CCc1cccc(NS(=O)(=O)c2cc(Br)cc3c2OC(C)C(=O)N3)c1` (stereo not shown) [BC19288], for which the IC50 was below 0.1 µM in the assay with NF-κB (setting [1]) and above 10 µM with TNF release (setting [2]).
For `CC1Oc2c(cc(Br)cc2S(=O)(=O)Nc2ccc(F)cc2Cl)NC1=O` (stereo not shown) [BC19289], the IC50 was below 0.1 µM in the assay on NF-κB (setting [1]) and above 10 µM with TNF release (setting [2]).
As to `CCC1Oc2c(cc(Br)cc2S(=O)(=O)Nc2ccc(Cl)cc2)NC1=O` (stereo not shown) [BC19290], the IC50 in the assay on NF-κB (setting [1]) is below 0.1 µM; with TNF release (setting [2]), above 10 µM.
`CC1Oc2c(cc(Cl)cc2S(=O)(=O)Nc2ccccc2)NC1=O` (stereo not shown) [BC19291]: the figures for the IC50 in the assay on NF-κB (setting [1]) and in the assay on TNF release (setting [2]) were below 0.1 µM and above 10 µM, respectively.
With `COc1ccc(NS(=O)(=O)c2cc(Cl)cc3c2OC(C)C(=O)N3)cc1Cl` (stereo not shown) [BC19292], the IC50 with NF-κB (setting [1]) is below 0.1 µM; with TNF release (setting [2]), above 10 µM.
The like results for `CC(C)NS(=O)(=O)c1cc(Cl)cc2c1OC(C)C(=O)N2` (stereo not shown) [BC19293] were, in that order, 0.1 to 1 µM and above 10 µM.
In the case of `CCNS(=O)(=O)c1cc(Cl)cc2c1OC(C)C(=O)N2` (stereo not shown) [BC19294], the IC50 is 1 to 10 µM with NF-κB (setting [1]) and above 10 µM with TNF release (setting [2]).
As to `CC(=O)N1CC(=O)Nc2ccc(S(=O)(=O)N3CCCC3)cc21` [BC19295], the IC50 in the assay on NF-κB (LPS-stimulated) was below 0.1 µM; in the assay on TNF release (setting [3]), above 10 µM.
Turning to `CC1C(=O)Nc2ccc(S(=O)(=O)N3CCCC3)cc2N1C` (stereo not shown) [BC19296], the IC50 was 1 to 10 µM with NF-κB (LPS-stimulated) and above 10 µM with TNF release (setting [3]).
Take `CC1C(=O)Nc2ccc(S(=O)(=O)N3CCCC3)cc2N1C(=O)N1CCOCC1` (stereo not shown) [BC19297]: the figures for the IC50 with NF-κB (LPS-stimulated) and in the assay on TNF release (setting [3]) were 1 to 10 µM and above 10 µM, respectively.
For the molecule `CC(C)NC(=O)N1c2cc(S(=O)(=O)N3CCCC3)ccc2NC(=O)C1C` (stereo not shown) [BC19298], the IC50 is below 0.1 µM with NF-κB (LPS-stimulated) and above 10 µM with TNF release (setting [3]).
As for `COCCNC(=O)N1c2cc(S(=O)(=O)N3CCCC3)ccc2NC(=O)C1C` (stereo not shown) [BC19299], the IC50 was 1 to 10 µM with NF-κB (LPS-stimulated) and above 10 µM in the assay on TNF release (setting [3]).
As to `NS(=O)(=O)c1ccc2c(c1)N1CCCC1C(=O)N2` (stereo not shown) [BC19300], the IC50 with NF-κB (LPS-stimulated) was 0.1 to 1 µM; in the assay with TNF release (setting [3]), above 10 µM.
As for `Cc1nnc(-c2ccc3nc(-c4ccc(F)cc4)c(-c4ccc(F)cc4)nc3c2)n1C` [BC19301], the 50% inhibitory concentration (IC50) was below 0.1 µM in the assay with NF-κB (LPS-stimulated) and above 10 µM in the assay with TNF release (setting [3]).
As for `Cn1cc(-c2ccc3nc(-c4ccc(F)cc4)c(-c4ccc(F)cc4)nc3c2)cn1` [BC19302], the IC50 is 1 to 10 µM with NF-κB (LPS-stimulated) and above 10 µM in the assay with TNF release (setting [3]).
In the case of `COc1ncc(-c2ccc3nc(-c4ccc(F)cc4)c(-c4ccc(F)cc4)nc3c2)cc1F` [BC19303], the IC50 with NF-κB (LPS-stimulated) and in the assay with TNF release (setting [3]) was above 10 µM each time.
With `Cc1ccncc1-c1ccc2nc(-c3ccc(F)cc3)c(-c3ccc(F)cc3)nc2c1` [BC19304], the figures for the IC50 in the assay on NF-κB (LPS-stimulated) and in the assay with TNF release (setting [3]) were 1 to 10 µM and above 10 µM, respectively.
Take `Cn1ncc2c(-c3ccc4nc(-c5ccc(F)cc5)c(-c5ccc(F)cc5)nc4c3)cccc21` [BC19305]: the concentration for half-maximal inhibition (IC50) with NF-κB (LPS-stimulated) and in the assay with TNF release (setting [3]) was above 10 µM throughout.
For the molecule `Fc1ccc(-c2nc3ccc(-c4nncn4CCN4CCOCC4)cc3nc2-c2ccc(F)cc2)cc1` [BC19306], the IC50 with NF-κB (LPS-stimulated) was 0.1 to 1 µM; in the assay on TNF release (setting [3]), above 10 µM.
The matching figures for `Cc1ccc(S(=O)(=O)c2nc3cc(C(=O)N4CCN(C)CC4)ccc3nc2-c2ccc(F)cc2)cc1F` [BC19307]: 0.1 to 1 µM and below 0.1 µM.
As to `Cc1ccc(S(=O)(=O)c2nc3cc(C(=O)N4CCN(C)CC4)ccc3nc2-c2ccc(F)cc2)cc1` [BC19308], the values for the IC50 with NF-κB (LPS-stimulated) and in the assay on TNF release (setting [3]) were 0.1 to 1 µM and below 0.1 µM, respectively.
On to `CN1CCC(C(=O)Nc2ccc3nc(-c4ccc(F)cc4)c(-c4ccc(F)cc4)nc3c2)CC1` [BC19309], for which the IC50 with NF-κB (LPS-stimulated) was 0.1 to 1 µM; in the assay on TNF release (setting [3]) it was 1 to 10 µM.
In the case of `CC(=O)N1CCC(C(=O)Nc2ccc3nc(-c4ccc(F)cc4)c(-c4ccc(F)cc4)nc3c2)CC1` [BC19310], the 50% inhibitory concentration (IC50) is below 0.1 µM with NF-κB (LPS-stimulated) and above 10 µM in the assay with TNF release (setting [3]).
Turning to `CNC(=O)N1CCC(C(=O)Nc2ccc3nc(-c4ccc(F)cc4)c(-c4ccc(F)cc4)nc3c2)CC1` [BC19311], the IC50 with NF-κB (LPS-stimulated) is below 0.1 µM; with TNF release (setting [3]), above 10 µM.
As to `CS(=O)(=O)N1CCC(C(=O)Nc2ccc3nc(-c4ccc(F)cc4)c(-c4ccc(F)cc4)nc3c2)CC1` [BC19312], the results for the IC50 in the assay on NF-κB (LPS-stimulated) and in the assay with TNF release (setting [3]) were below 0.1 µM and 1 to 10 µM, respectively.
Take `C=CC(=O)Nc1ccc2nc(-c3ccc(F)cc3)c(-c3ccc(F)cc3)nc2c1` [BC19313]: the IC50 in the assay on NF-κB (LPS-stimulated) was in the range of 0.1 to 1 µM; in the assay on TNF release (setting [3]), 1 to 10 µM.
As for `CC#CC(=O)Nc1ccc2nc(-c3ccc(F)cc3)c(-c3ccc(F)cc3)nc2c1` [BC19314], the results for the IC50 in the assay with NF-κB (LPS-stimulated) and with TNF release (setting [3]) were below 0.1 µM and 1 to 10 µM, respectively.
For the molecule `C[C@H](Cl)C(=O)Nc1ccc2nc(-c3ccc(F)cc3)c(-c3ccc(F)cc3)nc2c1` [BC19315], the IC50 was 0.1 to 1 µM in the assay on NF-κB (LPS-stimulated) and above 10 µM in the assay on TNF release (setting [3]).
Take `CN1CCN(C(=O)c2ccc3nc(-c4ccc(F)cc4)c(-c4ccc(C#N)cc4)nc3c2)CC1` [BC19316]: the IC50 is 0.1 to 1 µM in the assay with NF-κB (LPS-stimulated) and above 10 µM with TNF release (setting [3]).
Consider `CN1CCN(C(=O)c2ccc3nc(-c4ccc(F)cc4)c(-c4ccc(Cl)cc4)nc3c2)CC1` [BC19317], for which the figures for the IC50 with NF-κB (LPS-stimulated) and in the assay on TNF release (setting [3]) were below 0.1 µM and above 10 µM, respectively.
`CN1CCN(C(=O)c2ccc3nc(-c4ccc(F)cc4)c(-c4ccc(F)cc4F)nc3c2)CC1` [BC19318]: the IC50 is below 0.1 µM with NF-κB (LPS-stimulated) and above 10 µM with TNF release (setting [3]).
On to `CCc1ccc(-c2nc3cc(C(=O)N4CCN(C)CC4)ccc3nc2-c2ccc(F)cc2)cc1` [BC19319], for which the figures for the IC50 in the assay on NF-κB (LPS-stimulated) and with TNF release (setting [3]) were 1 to 10 µM and above 10 µM, respectively.
Regarding `O=C(O)c1cccc2nc(-c3ccc(F)cc3)c(-c3ccc(F)cc3)nc12` [BC19320], the IC50 in the assay with NF-κB (LPS-stimulated) and in the assay on TNF release (setting [3]) was above 10 µM in each case.
Turning to `C#CCNC(=O)c1cccc2nc(-c3ccc(F)cc3)c(-c3ccc(F)cc3)nc12` [BC19321], the IC50 was 1 to 10 µM with NF-κB (LPS-stimulated) and above 10 µM in the assay with TNF release (setting [3]).
On to `Cc1ccc(S(=O)(=O)c2c(O)[nH]c3ncccc3c2=O)cc1F` [BC19322], for which the IC50 is 1 to 10 µM in the assay with NF-κB (setting [1]) and above 10 µM in the assay with TNF release (setting [2]).
The matching figures for `O=c1c(S(=O)(=O)c2ccc(F)cc2)c(O)[nH]c2ncccc12` [BC19323]: above 10 µM and above 10 µM.
